Laboratory results taken from US12122750B2, “AT2R antagonists and uses thereof” (Eli Lilly and Company, priority 2022, dated 2024).
pKi: −log10 of the molar value.

Molecular target: recombinant human angiotensin-II receptor subtype 2 (hAT2R) (Homo sapiens (Human), UniProt P50052)
Assay: Competitive radioligand binding assay (SPA), hAT2R HEK293 membranes
Conditions: [125I]-Tyr4-Angiotensin-II, read-out: AT2R Ki
Procedure: Compound Solubilization Test and reference compounds were received as dry powder reagents, weighed, and solubilized in 100% DMSO to generate a working stock concentration of 10 mM. Membrane Preparation Protocol (hAT2R HEK293 and rAT2R HEK293) hAT2R membranes were prepared from human embryonic kidney (HEK293) cells which were stably transfected with recombinant human angiotensin-II receptor subtype 2 (hAT2R). Cells from the stable cell lines were expanded in tissue culture flasks to generate a large population of cells; cell pellet (>1 gm), and these cell pellets were stored frozen prior to initiating this membrane isolation procedure for each receptor isoform. Frozen cell pellets were thawed in ice-cold homogenization/resuspension buffer (50 mM Tris-HCl, pH 7.5) containing one Complete© protease inhibitor tablet with EDTA (Roche Diagnostics) per 50 mL buffer, and cell pellet was resuspended at a ratio of 10 mL homogenization buffer to gram of starting cell pellet. Cell suspension was homogenized with an overhead motor-driven Teflon-glass homogenizer using 15 to 20 strokes, followed by centrifugation at 1100×g for 10 minutes at 4° C. The supernatant was saved on ice, pellets were homogenized as before, and centrifuged at 1100×g for 10 minutes at 4° C. Both supernatants were combined and subsequently centrifuged at 35,000×g for 60 minutes at 4° C. The final centrifugation pellet (pellet 2) containing the isolated membranes was resuspended in buffer (4 to 5 mL/g of starting cell paste) containing protease inhibitors and quick frozen in liquid nitrogen prior to storage at -80° C. Protein concentration was determined using a BCA kit (ThermoScientific, Inc.) with bovine serum albumin (BSA) as standard. […] The assays were performed with a scintillation proximity assay (SPA) method using polyvinyltoluene (PVT) wheat germ agglutinin-coupled SPA beads (Perkin Elmer Cat. #RPNQ0001). Assay buffer containing BSA (50 mM Tris-HCl, pH 7.5, 150 mM NaCl, 0.1% w/v fatty-acid free BSA) was used for preparing radioligand, membrane and SPA bead reagent dilution to working stock concentrations. Reference control and test compounds were diluted to obtain ten-point concentration response curves using a four-fold serial dilution protocol onto assay plates, dispensed acoustically from DMSO stock using automated ECHO instrument technology (Labcyte, Inc.). Concentration response curves were routinely generated with the highest final assay concentration for the reference angiotensin-II control at 50 nM, and the highest final assay concentration for the test compounds at 50 μM. […] The hAT2R membrane was combined with PVT-WGA SPA beads to obtain a final assay concentration of 0.25 μg/well hAT2R membrane+0.1 mg/well PVT-WGA SPA bead. And the hAT1R membrane PVT-WGA SPA bead final concentrations was 0.5 μg/well hAT1R membrane+0.1 mg/well PVT-WGA SPA bead. […] For all assays, radioligand addition was followed by the addition of membrane-SPA bead mixture, i.e., the hAT2R membrane-SPA bead mixture (30 μL), the rAT2R membrane-SPA bead mixture, or the AT1R membrane-SPA bead mixture (30 μL) into the assay plate. All dispensing steps were added using a Multiflo FX (Biotek, Inc.) bulk dispensing instrument. After reagent addition steps, assay plates were sealed, and plate contents mixed for one minute on a benchtop micro-plate shaker. Following a 10-hour incubation at room temperature to allow for bead settling and radioligand binding, bound radioactivity was quantitated using a Microbeta Trilux scintillation counter (Perkin Elmer) and expressed as counts per minute (CPM). The unlabeled angiotensin-II control was included on each plate as an experimental assay reference. […] Data Analysis Procedures Compounds were tested in a 10-point concentration response curve (CRC) format, with each plate containing the positive control angiotensin-II positive reference compound, and experimental compounds.

Sequence of recombinant human angiotensin-II receptor subtype 2 (hAT2R) (P50052 whole entry): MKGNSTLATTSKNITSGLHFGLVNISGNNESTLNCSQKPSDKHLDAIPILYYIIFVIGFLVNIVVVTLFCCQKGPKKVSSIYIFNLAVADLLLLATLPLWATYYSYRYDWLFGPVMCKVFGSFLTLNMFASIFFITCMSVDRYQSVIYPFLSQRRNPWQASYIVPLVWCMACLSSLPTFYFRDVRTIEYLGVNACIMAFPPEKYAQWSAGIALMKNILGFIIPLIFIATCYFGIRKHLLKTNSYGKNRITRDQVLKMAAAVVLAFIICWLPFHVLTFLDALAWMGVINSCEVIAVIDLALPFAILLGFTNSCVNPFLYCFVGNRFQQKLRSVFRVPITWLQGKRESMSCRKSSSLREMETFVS

| Compound | pKi |
| --- | --- |
| CCC(C1CC1)N(C(=O)CC1(C(=O)O)CCN(C(=O)N(C)c2ccc(F)cc2)CC1)c1ccccc1 (racemic) [Example 17, 4-[2-[N-(1-cyclopropylpropyl)anilino]-2-oxo-ethyl]-1-[(4-fluorophenyl)-methyl-carbamoyl]piperidine-4-carboxylic acid] | 8.24 |
| CC(C)C(C)N(C(=O)CC1(C(=O)O)CCN(C(=O)N(C)c2ccc(F)cc2)CC1)c1ccccc1 (racemic) [Example 34, 4-[2-(N-[(1)-1,2-dimethylpropyl]anilino)-2-oxo-ethyl]-1-[(4-fluorophenyl)-methyl-carbamoyl]piperidine-4-carboxylic acid] | 8.36 |
| CC(CC(F)F)N(C(=O)CC1(C(=O)O)CCN(C(=O)N(C)c2ccc(F)cc2)CC1)c1ccccc1 (racemic) [Example 36, 4-[2-(N-(3,3-difluoro-1-methyl-propyl)anilino)-2-oxo-ethyl]-1-[(4-fluorophenyl)-methyl-carbamoyl]piperidine-4-carboxylic acid] | 8.35 |
| CN(C(=O)N1CCC(CC(=O)N(c2ccccc2)C2CCCOC2)(C(=O)O)CC1)c1ccc(F)cc1 (racemic) [Example 41, 1-[(4-fluorophenyl)-methyl-carbamoyl]-4-[2-oxo-2-(N-tetrahydropyran-3-ylanilino)ethyl]piperidine-4-carboxylic acid] | 7.78 |
| CN(C(=O)N1CCC(CC(=O)N(c2ccccc2)C2CCCOC2)(C(=O)O)CC1)c1ccc(C2CC2)cc1 (racemic) [Example 45, 1-[(4-cyclopropylphenyl)-methyl-carbamoyl]-4-[2-oxo-2-(N-tetrahydropyran-3-ylanilino)ethyl]piperidine-4-carboxylic acid] | 8.51 |
| CC(C)c1ccc(C(=O)N2CCC(CC(=O)N(c3ccccc3)C3CCCC(F)(F)C3)(C(=O)O)CC2)cc1 (racemic) [Example 69, 4-[2-(N-(3,3-difluorocyclohexyl)anilino)-2-oxo-ethyl]-1-(4-isopropylbenzoyl)piperidine-4-carboxylic acid] | 8.03 |
| O=C(c1ccc(C2CC2)cc1)N1CCC(CC(=O)N(c2ccccc2)C2CCCC(F)(F)C2)(C(=O)O)CC1 (racemic) [Example 70, 1-(4-cyclopropylbenzoyl)-4-[2-(N-(3,3-difluorocyclohexyl)anilino)-2-oxo-ethyl]piperidine-4-carboxylic acid] | 8.03 |
| O=C(N1CCC(CC(=O)N(c2ccccc2)C2CCCC(F)(F)C2)(C(=O)O)CC1)N1CCc2c(F)cccc21 (racemic) [Example 71, 4-[2-(N-(3,3-difluorocyclohexyl)anilino)-2-oxo-ethyl]-1-(4-fluoroindoline-1-carbonyl)piperidine-4-carboxylic acid] | 8.50 |
| O=C(N1CCC(CC(=O)N(c2ccccc2)C2CCCC(F)(F)C2)(C(=O)O)CC1)N1CCc2ccccc21 (single isomer, unassigned) [Example 35A, 4-[2-(N-(3,3-difluorocyclohexyl)anilino)-2-oxo-ethyl]-1-(indoline-1-carbonyl)piperidine-4-carboxylic acid] | 7.97 |
| CN(C(=O)N1CCC(CC(=O)N(c2ccccc2)C2CCCOC2)(C(=O)O)CC1)c1ccc(F)cc1 (single isomer, unassigned) [Example 41A, 1-[(4-fluorophenyl)-methyl-carbamoyl]-4-[2-oxo-2-(N-tetrahydropyran-3-ylanilino)ethyl]piperidine-4-carboxylic acid] | 8.05 |
| CN(C(=O)N1CCC(CC(=O)N(c2ccccc2)C2CCCOC2)(C(=O)O)CC1)c1ccc(F)cc1 (single isomer, unassigned) [Example 41B, 1-[(4-fluorophenyl)-methyl-carbamoyl]-4-[2-oxo-2-(N-tetrahydropyran-3-ylanilino)ethyl]piperidine-4-carboxylic acid] | 7.83 |

The next lines start with the values.

| pKi | Compound |
| --- | --- |
| 8.81 | CN(C(=O)N1CCC(CC(=O)N(c2ccccc2)C2CCCCC2(F)F)(C(=O)O)CC1)c1ccc(F)cc1 (racemic) [Example 10, 4-[2-(N-(2,2-difluorocyclohexyl)anilino)-2-oxo-ethyl]-1-[(4-fluorophenyl)-methyl-carbamoyl]piperidine-4-carboxylic acid] |
| 8.53 | CC(C1CC1)N(C(=O)CC1(C(=O)O)CCN(C(=O)N(C)c2ccc(F)cc2)CC1)c1ccccc1 (racemic) [Example 43, 4-[2-[N-(1-cyclopropylethyl)anilino]-2-oxo-ethyl]-1-[(4-fluorophenyl)-methyl-carbamoyl]piperidine-4-carboxylic acid] |
| 9.24 | CN(C(=O)N1CCC(CC(=O)N(c2ccccc2F)C2CCCC(F)(F)C2)(C(=O)O)CC1)c1ccccc1 (racemic) [Example 52, 4-[2-(N-(3,3-difluorocyclohexyl)-2-fluoro-anilino)-2-oxo-ethyl]-1-[methyl(phenyl)carbamoyl]piperidine-4-carboxylic acid] |
| 8.70 | CN(C(=O)N1CCC(CC(=O)N(c2ccc(F)cc2)C2CCCC(F)(F)C2)(C(=O)O)CC1)c1ccccc1 (racemic) [Example 54, 4-[2-(N-(3,3-difluorocyclohexyl)-4-fluoro-anilino)-2-oxo-ethyl]-1-[methyl(phenyl)carbamoyl]piperidine-4-carboxylic acid] |
| 8.98 | CC(C(=O)N1CCC(CC(=O)N(c2ccccc2)C2CCCC(F)(F)C2)(C(=O)O)CC1)c1ccc(F)cc1 (racemic) [Example 62, 4-[2-(N-(3,3-difluorocyclohexyl)anilino)-2-oxo-ethyl]-1-[2-(4-fluorophenyl)propanoyl]piperidine-4-carboxylic acid] |
| 8.92 | CC(C(=O)N1CCC(CC(=O)N(c2ccccc2)C2CCCC(F)(F)C2)(C(=O)O)CC1)c1cccc(F)c1 (racemic) [Example 63, 4-[2-(N-(3,3-difluorocyclohexyl)anilino)-2-oxo-ethyl]-1-[2-(3-fluorophenyl)propanoyl]piperidine-4-carboxylic acid] |
| 8.98 | CC(C(=O)N1CCC(CC(=O)N(c2ccccc2)C2CCCC(F)(F)C2)(C(=O)O)CC1)c1ccccc1F (racemic) [Example 64, 4-[2-(N-(3,3-difluorocyclohexyl)anilino)-2-oxo-ethyl]-1-[2-(2-fluorophenyl)propanoyl]piperidine-4-carboxylic acid] |
| 8.59 | O=C(Cc1ccccc1F)N1CCC(CC(=O)N(c2ccccc2)C2CCCC(F)(F)C2)(C(=O)O)CC1 (racemic) [Example 65, 4-[2-(N-(3,3-difluorocyclohexyl)anilino)-2-oxo-ethyl]-1-[2-(2-fluorophenyl)acetyl]piperidine-4-carboxylic acid] |
| 8.53 | CC(C)c1ccc(C(=O)N2CCC(CC(=O)N(c3ccccc3)C3CCCC(F)(F)C3)(C(=O)O)CC2)c(F)c1 (racemic) [Example 68, 4-[2-(N-(3,3-difluorocyclohexyl)anilino)-2-oxo-ethyl]-1-(2-fluoro-4-isopropyl-benzoyl)piperidine-4-carboxylic acid] |
| 8.96 | O=C(N1CCC(CC(=O)N(c2ccccc2)C2CCCC(F)(F)C2)(C(=O)O)CC1)N1CCc2ccc(F)cc21 (racemic) [Example 72, 4-[2-(N-(3,3-difluorocyclohexyl)anilino)-2-oxo-ethyl]-1-(6-fluoroindoline-1-carbonyl)piperidine-4-carboxylic acid] |
| 8.52 | O=C(N1CCC(CC(=O)N(c2ccccc2)C2CCCC(F)(F)C2)(C(=O)O)CC1)N1CCc2cccc(F)c21 (racemic) [Example 73, 4-[2-(N-(3,3-difluorocyclohexyl)anilino)-2-oxo-ethyl]-1-(7-fluoroindoline-1-carbonyl)piperidine-4-carboxylic acid] |
| 8.66 | CC(C1CC1)N(C(=O)CC1(C(=O)O)CCN(C(=O)N(C)c2ccc(F)cc2)CC1)c1ccccc1 (single isomer, unassigned) [Example 43A, 4-[2-[N-(1-cyclopropylethyl)anilino]-2-oxo-ethyl]-1-[(4-fluorophenyl)-methyl-carbamoyl]piperidine-4-carboxylic acid] |
